Key:
[1] = molecular target: T1, CYP6Z2 (Anopheles gambiae, UniProt A8I285)
T1 sequence (A8I285 1-492): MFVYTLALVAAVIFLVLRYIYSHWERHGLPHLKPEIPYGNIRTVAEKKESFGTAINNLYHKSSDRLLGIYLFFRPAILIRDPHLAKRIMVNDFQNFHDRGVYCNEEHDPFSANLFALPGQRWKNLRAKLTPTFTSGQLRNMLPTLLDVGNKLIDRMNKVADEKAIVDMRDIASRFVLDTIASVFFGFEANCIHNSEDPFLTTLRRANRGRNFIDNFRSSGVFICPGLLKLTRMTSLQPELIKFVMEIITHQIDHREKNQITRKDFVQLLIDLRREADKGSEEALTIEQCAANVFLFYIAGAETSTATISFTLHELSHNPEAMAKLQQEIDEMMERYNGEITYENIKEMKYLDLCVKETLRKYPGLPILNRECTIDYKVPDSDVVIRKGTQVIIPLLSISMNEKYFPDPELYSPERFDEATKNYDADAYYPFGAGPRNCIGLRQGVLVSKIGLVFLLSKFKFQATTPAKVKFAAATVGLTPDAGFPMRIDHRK
T1 sequence (Q86QH5 1-679 partner): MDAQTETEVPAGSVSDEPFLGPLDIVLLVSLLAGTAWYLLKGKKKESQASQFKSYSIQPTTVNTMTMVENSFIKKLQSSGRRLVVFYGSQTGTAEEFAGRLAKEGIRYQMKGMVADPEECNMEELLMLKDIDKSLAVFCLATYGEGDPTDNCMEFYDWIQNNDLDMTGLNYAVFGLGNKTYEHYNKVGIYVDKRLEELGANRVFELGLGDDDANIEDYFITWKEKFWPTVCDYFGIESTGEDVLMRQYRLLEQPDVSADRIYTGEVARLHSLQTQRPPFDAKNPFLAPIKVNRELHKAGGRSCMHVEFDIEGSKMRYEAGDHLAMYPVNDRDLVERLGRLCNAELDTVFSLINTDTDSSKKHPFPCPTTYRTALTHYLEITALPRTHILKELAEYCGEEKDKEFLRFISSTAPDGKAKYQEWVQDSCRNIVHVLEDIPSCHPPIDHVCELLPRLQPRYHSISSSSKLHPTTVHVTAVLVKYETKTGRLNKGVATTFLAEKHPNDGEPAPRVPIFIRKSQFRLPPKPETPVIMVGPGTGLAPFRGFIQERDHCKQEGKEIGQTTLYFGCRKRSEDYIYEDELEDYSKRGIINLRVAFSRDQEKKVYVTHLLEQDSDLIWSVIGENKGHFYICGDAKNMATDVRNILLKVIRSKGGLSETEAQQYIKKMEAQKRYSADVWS
T1 sequence (Q86QH4 1-128 partner): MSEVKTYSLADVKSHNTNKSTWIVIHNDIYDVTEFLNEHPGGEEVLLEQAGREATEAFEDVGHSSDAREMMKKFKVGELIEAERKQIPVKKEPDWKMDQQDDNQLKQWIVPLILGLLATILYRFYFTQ

[2] = system: CYP6P5
[3] = molecular target: T2, CYP6P4 (Anopheles gambiae, UniProt Q7QCY8)
T2 sequence (Q7QCY8 1-506): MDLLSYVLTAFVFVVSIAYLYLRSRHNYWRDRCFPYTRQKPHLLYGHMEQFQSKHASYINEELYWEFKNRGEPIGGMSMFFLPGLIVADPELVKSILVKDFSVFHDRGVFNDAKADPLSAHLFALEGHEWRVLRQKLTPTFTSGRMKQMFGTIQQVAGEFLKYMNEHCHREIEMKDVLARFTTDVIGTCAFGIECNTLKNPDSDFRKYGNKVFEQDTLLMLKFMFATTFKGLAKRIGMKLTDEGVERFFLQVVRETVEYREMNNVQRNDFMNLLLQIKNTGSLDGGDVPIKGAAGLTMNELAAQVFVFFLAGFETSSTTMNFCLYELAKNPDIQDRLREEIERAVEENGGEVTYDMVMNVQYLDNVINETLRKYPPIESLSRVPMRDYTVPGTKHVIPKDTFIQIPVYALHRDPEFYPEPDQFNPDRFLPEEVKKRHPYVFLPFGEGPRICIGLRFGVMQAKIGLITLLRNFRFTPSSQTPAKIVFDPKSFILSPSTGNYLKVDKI
T2 sequence (Q86QH5 1-679 partner): T1 sequence (Q86QH5 1-679 partner)
T2 sequence (Q86QH4 1-128 partner): T1 sequence (Q86QH4 1-128 partner)

[4] = molecular target: T3, CYP6P2 (Anopheles gambiae, UniProt Q8T629, V81I)
T3 sequence (Q8T629 1-507 V81I): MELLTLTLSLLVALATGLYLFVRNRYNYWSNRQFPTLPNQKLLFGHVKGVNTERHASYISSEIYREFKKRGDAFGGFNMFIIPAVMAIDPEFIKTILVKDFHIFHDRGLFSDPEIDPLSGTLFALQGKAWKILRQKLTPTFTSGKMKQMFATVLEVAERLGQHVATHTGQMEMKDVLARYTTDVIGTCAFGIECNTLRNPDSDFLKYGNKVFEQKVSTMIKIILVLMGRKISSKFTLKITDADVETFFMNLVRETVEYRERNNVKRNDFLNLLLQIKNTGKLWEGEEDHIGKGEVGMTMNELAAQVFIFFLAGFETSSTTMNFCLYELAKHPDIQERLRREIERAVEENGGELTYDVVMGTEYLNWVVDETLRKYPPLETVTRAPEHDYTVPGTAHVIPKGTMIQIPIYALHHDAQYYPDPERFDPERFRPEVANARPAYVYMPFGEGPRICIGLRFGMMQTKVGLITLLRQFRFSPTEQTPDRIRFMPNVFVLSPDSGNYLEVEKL
T3 sequence (Q7QFI3 1-587 partner): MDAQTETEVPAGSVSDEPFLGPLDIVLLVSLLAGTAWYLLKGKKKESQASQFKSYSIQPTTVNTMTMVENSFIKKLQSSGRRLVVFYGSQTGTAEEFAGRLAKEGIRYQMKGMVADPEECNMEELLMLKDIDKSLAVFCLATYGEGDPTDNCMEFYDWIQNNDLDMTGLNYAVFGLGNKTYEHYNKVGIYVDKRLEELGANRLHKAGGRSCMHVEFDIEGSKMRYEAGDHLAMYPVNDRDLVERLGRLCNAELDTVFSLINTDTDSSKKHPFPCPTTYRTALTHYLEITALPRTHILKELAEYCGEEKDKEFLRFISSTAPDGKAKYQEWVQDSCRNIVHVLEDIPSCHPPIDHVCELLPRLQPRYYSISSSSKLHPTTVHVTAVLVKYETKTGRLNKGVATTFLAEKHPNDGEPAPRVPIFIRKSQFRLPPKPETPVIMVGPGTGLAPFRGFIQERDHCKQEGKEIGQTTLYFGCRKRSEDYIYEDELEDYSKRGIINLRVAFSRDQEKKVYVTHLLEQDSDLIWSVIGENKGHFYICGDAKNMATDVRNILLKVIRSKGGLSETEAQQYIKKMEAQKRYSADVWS
T3 sequence (Q86QH4 1-128 partner): T1 sequence (Q86QH4 1-128 partner)

## CC(COc1ccc(Oc2ccccc2)cc1)Oc1ccccn1 (stereo not drawn) [PPF, pyriproxyfen]
[1]; Anopheles gambiae, pH 7.4
  % PPF depletion + PBO: 8.41 ± 1.58%
  % PPF depletion −PBO: 66.26 ± 3.02%
[2]; Anopheles gambiae, pH 7.4
  % PPF depletion + PBO: 2.40 ± 2.01%
  % PPF depletion −PBO: 39.96 ± 1.04%
[3]; Anopheles gambiae, pH 7.4
  % PPF depletion + PBO: 4.44 ± 1.99%
  % PPF depletion −PBO: 81.63 ± 0.63%
[4]; Anopheles gambiae, pH 7.4
  % PPF depletion + PBO: 6.45 ± 3.22%
  % PPF depletion −PBO: 58.03 ± 1.35%

## CCCCOCCOCCOCc1cc2c(cc1CCC)OCO2 [PBO, piperonyl butoxide]
[1]
  Inhibition ratio (%): reduction of PPF depletion caused by PBO: 87.3%
[2]
  Inhibition ratio (%): reduction of PPF depletion caused by PBO: 95.4%
[3]
  Inhibition ratio (%): reduction of PPF depletion caused by PBO: 94.6%
[4]
  Inhibition ratio (%): reduction of PPF depletion caused by PBO: 91.0%

From PMC6399515 (Insect Biochemistry and Molecular Biology, 2016)
